Structures can show the parent of a compound that is named as a salt. Active and inactive are the calls of the source.
Legend:
[1] = biological target: T1, Eukaryotic translation initiation factor 4H (Homo sapiens, UniProt Q15056); test: eIF4H binding inhibition – biochemical, uHTS, fluorescence polarization, translation initiation inhibitor project, primary screen (AID 2012)
[2] = biological target: T2, Polyadenylate-binding protein 1 (Homo sapiens, UniProt P11940); test: blockers of PABP interaction with poly(A) – biochemical, fluorescence polarization, […] (AID 2014)
T2 sequence (P11940 whole entry): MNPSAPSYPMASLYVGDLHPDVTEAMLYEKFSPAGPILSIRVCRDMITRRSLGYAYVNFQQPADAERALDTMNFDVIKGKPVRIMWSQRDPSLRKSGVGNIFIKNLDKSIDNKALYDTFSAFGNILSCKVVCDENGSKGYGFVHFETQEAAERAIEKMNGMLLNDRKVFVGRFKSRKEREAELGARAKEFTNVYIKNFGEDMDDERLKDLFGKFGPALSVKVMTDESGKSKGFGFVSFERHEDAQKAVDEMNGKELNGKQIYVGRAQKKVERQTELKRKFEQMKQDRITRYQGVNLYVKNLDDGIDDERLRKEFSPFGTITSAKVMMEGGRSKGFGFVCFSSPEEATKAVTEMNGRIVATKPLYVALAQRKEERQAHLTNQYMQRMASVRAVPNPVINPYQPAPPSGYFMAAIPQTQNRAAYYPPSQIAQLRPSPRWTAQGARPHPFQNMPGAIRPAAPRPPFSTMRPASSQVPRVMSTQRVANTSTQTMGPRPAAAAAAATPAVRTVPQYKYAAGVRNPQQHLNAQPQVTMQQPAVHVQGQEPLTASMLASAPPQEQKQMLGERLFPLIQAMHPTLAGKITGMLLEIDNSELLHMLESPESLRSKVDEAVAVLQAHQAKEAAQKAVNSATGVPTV

[3] = biological target: DNA dC->dU-editing enzyme APOBEC-3A (Homo sapiens, UniProt P31941); test: Dose Response confirmation of small molecule APOBEC3A DNA Deaminase Inhibitors via a fluorescence-based single-stranded DNA deaminase assay. [Related pubchem assays (depositor defined):AID493011, AID493024]; format: functional
DNA dC->dU-editing enzyme APOBEC-3A, sequence (P31941 whole entry): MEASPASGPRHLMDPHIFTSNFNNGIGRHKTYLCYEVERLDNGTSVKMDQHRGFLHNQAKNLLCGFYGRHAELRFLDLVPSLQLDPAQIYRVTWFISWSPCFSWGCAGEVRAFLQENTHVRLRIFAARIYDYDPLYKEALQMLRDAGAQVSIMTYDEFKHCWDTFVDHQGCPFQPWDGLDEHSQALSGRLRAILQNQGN

[4] = biological target: T3, DNA dC->dU-editing enzyme APOBEC-3G (Homo sapiens, UniProt Q9HC16); format: functional
T3 sequence (Q9HC16 whole entry): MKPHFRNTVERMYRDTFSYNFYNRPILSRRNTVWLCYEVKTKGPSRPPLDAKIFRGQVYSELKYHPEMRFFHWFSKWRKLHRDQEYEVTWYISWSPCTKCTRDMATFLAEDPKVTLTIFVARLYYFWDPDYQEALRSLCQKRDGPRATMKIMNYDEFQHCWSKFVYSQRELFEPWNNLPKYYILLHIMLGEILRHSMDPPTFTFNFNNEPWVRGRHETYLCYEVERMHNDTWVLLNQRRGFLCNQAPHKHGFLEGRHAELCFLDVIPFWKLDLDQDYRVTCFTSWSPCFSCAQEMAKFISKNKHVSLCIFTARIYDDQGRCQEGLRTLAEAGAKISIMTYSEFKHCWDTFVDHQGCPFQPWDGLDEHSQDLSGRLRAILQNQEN

[5] = A Cell Based Secondary Assay To Explore Cytotoxicity of Compounds that Sensitize Mycobacterium Tuberculosis to Beta-Lactam Antibiotics.; format: functional
[6] = biological target: T1, Eukaryotic translation initiation factor 4H; test: inhibitors of translation initiation factor eIF4H – SAR follow-up (AID 435011); format: functional
[7] = biological target: T2, Polyadenylate-binding protein 1; test: PABP inhibition in translation initiation, SAR follow-up (AID 435018); format: functional
[8] = biological target: T4, Voltage-gated N-type calcium channel alpha-1B subunit/Amyloid beta A4 precursor protein-binding family A member 1 (Homo sapiens, UniProt Q00975+Q02410); format: protein assay
T4 sequence (Q00975 whole entry): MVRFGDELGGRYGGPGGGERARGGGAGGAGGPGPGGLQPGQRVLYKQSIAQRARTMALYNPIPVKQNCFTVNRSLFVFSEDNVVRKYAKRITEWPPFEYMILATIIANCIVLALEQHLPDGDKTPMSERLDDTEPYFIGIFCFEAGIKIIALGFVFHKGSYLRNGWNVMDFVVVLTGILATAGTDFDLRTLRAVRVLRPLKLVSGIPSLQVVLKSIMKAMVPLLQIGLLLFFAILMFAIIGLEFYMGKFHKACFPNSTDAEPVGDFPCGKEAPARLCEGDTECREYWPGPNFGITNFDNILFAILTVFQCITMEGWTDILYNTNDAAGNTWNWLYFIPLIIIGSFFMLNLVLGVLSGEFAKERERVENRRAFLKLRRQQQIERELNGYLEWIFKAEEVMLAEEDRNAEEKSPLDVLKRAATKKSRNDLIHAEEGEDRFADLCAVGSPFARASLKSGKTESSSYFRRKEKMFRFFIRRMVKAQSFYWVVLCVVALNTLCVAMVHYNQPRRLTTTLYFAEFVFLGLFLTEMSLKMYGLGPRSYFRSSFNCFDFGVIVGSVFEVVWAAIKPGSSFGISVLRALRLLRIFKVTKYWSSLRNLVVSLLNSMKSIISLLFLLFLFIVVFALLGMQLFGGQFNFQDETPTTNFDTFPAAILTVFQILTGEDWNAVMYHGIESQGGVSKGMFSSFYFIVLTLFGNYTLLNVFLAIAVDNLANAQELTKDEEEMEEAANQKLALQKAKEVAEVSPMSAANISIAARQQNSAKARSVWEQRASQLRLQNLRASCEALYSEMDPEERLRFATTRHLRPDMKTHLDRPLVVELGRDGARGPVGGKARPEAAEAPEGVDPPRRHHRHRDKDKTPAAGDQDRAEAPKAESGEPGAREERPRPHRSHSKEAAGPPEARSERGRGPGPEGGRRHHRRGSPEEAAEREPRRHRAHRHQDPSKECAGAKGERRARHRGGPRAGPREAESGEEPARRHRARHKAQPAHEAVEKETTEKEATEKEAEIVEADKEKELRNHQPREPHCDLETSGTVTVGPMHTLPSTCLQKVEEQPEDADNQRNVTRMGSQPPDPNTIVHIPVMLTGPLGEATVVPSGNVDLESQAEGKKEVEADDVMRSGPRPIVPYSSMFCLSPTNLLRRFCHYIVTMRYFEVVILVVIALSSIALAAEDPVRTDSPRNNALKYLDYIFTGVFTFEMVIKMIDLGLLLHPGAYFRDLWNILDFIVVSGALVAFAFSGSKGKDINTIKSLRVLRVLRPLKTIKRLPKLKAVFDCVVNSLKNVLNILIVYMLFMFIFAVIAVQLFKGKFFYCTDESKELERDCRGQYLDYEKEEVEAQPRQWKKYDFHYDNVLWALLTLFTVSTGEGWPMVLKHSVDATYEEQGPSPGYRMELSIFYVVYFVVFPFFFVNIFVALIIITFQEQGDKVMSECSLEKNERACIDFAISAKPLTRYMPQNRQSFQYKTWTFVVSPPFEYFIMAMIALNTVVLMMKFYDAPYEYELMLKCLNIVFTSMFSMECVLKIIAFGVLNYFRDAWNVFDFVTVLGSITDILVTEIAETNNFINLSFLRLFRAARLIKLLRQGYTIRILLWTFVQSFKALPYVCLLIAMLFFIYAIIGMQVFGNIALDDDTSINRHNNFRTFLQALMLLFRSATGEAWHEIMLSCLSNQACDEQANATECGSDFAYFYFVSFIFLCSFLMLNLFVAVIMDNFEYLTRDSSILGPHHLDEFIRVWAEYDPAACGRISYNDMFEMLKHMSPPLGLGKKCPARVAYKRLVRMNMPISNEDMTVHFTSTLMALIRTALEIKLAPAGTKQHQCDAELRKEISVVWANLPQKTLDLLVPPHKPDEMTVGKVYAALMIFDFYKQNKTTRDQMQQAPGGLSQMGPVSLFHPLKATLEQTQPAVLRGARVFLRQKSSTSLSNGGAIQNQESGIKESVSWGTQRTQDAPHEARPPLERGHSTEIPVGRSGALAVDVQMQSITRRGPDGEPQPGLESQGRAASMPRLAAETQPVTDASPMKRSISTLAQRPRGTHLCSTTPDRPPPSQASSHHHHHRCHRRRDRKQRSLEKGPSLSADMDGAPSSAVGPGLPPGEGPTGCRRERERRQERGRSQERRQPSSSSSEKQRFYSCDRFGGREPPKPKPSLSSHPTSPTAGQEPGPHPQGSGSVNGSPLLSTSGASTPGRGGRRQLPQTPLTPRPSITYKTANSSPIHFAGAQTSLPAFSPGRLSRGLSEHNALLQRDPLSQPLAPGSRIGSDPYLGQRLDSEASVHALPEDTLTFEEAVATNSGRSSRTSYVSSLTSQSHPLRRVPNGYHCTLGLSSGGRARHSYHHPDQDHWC
T4 sequence (Q02410 whole entry): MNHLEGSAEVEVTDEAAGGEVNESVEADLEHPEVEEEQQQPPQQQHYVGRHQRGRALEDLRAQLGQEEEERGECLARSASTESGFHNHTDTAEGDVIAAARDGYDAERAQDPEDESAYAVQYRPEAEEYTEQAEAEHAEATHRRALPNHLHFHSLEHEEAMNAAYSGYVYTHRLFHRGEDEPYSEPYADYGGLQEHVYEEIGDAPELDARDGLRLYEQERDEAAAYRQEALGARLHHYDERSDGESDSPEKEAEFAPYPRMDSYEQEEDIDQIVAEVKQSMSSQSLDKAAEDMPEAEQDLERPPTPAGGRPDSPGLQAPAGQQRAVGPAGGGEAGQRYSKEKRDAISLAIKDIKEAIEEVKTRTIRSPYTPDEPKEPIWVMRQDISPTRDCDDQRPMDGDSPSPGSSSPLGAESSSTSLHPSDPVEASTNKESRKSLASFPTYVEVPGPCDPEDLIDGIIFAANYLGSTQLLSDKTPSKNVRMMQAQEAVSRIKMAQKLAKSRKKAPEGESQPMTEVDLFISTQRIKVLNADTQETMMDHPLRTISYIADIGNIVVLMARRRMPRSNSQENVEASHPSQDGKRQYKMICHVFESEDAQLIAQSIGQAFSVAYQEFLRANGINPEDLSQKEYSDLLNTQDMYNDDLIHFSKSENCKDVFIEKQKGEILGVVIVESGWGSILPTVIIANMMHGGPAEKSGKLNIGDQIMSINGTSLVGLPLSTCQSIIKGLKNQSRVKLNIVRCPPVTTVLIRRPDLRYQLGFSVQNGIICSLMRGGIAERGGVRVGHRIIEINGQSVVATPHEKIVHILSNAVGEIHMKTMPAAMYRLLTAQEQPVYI

[9] = biological target: T4, Voltage-gated N-type calcium channel alpha-1B subunit/Amyloid beta A4 precursor protein-binding family A member 1; format: protein assay; remark: listed apart in the source
[10] = biological target: Induced myeloid leukemia cell differentiation protein Mcl-1 (Homo sapiens, UniProt Q07820); format: functional
[11] = biological target: T3, DNA dC->dU-editing enzyme APOBEC-3G; test: Dose Response confirmation of small molecule APOBEC3G DNA Deaminase Inhibitors via a fluorescence-based single-stranded DNA deaminase assay. [Related pubchem assays (depositor defined):AID493012, AID493028]; format: functional
[12] = biological target: DNA (cytosine-5)-methyltransferase 1 (Homo sapiens, UniProt P26358); test: inhibition of DNA methylation by DNMT1 – biochemical, fluorescent molecular beacon, confirmation (AID 602386); format: functional
[13] = biological target: Aspartyl aminopeptidase (Plasmodium falciparum 3D7, UniProt Q8I2J3)
[14] = biological target: Procathepsin L (Homo sapiens, UniProt P07711)
Procathepsin L, sequence (P07711 whole entry): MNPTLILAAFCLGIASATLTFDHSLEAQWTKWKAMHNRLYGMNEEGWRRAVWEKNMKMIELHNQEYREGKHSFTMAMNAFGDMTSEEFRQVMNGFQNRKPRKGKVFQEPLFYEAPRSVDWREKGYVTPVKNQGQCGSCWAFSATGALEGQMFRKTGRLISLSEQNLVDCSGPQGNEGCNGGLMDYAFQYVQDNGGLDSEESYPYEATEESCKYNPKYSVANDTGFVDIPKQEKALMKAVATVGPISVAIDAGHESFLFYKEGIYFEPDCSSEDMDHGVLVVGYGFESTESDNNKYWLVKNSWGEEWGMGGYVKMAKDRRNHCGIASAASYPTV

[15] = test system: HeLa; test: viability loss in HeLa cells – cell-based, 24 h, cherry-picked samples, cytotoxicity control, dose response (AID 504726); format: functional; details: Homo sapiens;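 further: potency for cytotoxicity as loss of luminescence signal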
[16] = luciferase reporter signal suppression in cells – H4 neuroglioma cells, luminescence, dose response (AID 1990); format: functional, cell-based
[17] = luciferase reporter signal reduction – luminescence, H4-C neuroglioblastoma cells, dose response (AID 2458); format: functional, cell-based;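 further: H4 neuroglioblastoma cells stably carrying a luciferase reporter gene fusion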
[18] = cells; format: functional, cell-based
[19] = Luminescence Cell-Based Dose Response HTS to Identify Inhibitors of 5'UTR Stem-Loop Driven Prion Protein mRNA Translation in H4 Neuroglioblastoma Cells. [Related pubchem assays: 1827 (Project Summary), 1813 (Primary HTS)]; format: functional
[20] = alpha-synuclein stem-loop luciferase translation blockers – H4 neuroglioma cells, luminescence, confirmation (AID 1988); format: functional, cell-based
[21] = alpha-synuclein stem-loop translation blockers – luminescence, H4 neuroglioblastoma cells, dose confirmation, confirmation (AID 2454); format: functional, cell-based;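 further: H4 neuroglioblastoma cells carrying an alpha-synuclein 5'UTR luciferase reporter; potency for inhibition of the luciferase signal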
[22] = HEK-293T viability loss after treatment – luminescence, T-cell screen hits, cytotoxicity control for TCR NF-kB inhibitor project, dose response (AID 489026); format: functional, cell-based;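 further: cells exposed to compound about 14 hours before the viability readout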
[23] = cells; format: functional, cell-based; remark: listed apart in the source
[24] = biological target: T5, Nuclear receptor subfamily 0 group B member 1 (Homo sapiens, UniProt P51843); format: functional, cell-based;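 further: HEK293T cells transfected with SF-1 and DAX-1 plus StAR promoter luciferase reporter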
T5 sequence (P51843 whole entry): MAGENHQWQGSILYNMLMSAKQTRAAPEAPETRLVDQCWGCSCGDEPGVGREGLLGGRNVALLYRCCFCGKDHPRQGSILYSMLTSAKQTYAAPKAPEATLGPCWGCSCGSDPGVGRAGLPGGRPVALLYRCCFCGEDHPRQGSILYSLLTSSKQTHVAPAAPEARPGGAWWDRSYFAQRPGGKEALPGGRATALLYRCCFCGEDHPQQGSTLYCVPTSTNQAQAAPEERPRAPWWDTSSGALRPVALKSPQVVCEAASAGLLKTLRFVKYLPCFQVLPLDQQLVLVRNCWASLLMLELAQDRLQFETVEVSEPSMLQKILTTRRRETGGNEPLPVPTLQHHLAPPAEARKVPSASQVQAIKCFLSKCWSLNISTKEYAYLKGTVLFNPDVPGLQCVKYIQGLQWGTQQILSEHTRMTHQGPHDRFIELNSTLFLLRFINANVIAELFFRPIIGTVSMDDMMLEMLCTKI

With Cc1cccc(C(=O)Nc2ccc(S(=O)(=O)N3CCOCC3)cc2C)c1 the IC50 [1] was > 100 µM (inactive), the IC50 [2] was 11.2 µM (active) and the IC50 [3] was 4.44 µM (active). The IC50 [4] was 9.37 µM (active).

For CCC(C)Nc1c2c(nc3c(-c4ccccc4)c(C)nn13)CCC2 (stereo not given), the CC50 [5] was > 40 µM (active).

For Cc1ccc(NC(=O)C2CCCN2C(=O)Oc2ccccc2)cc1 (stereo not given), the IC50 [6] was > 100 µM (inactive) and the IC50 [7] was > 100 µM (inactive).

With Oc1cccc2cc3cccc(O)c3c(O)c12 the IC50 [8] was 19.9 µM (active), the IC50 [9] was 38.3 µM (active) and the IC50 [10] was 2.39 µM (active). The IC50 [11] was 16.9 µM (active) and the IC50 [12] was 1.9 µM (active).

For Cc1ccc(Cl)cc1NC(=S)Nn1cnnc1, the IC50 [13] was 2.06 µM (active) and the IC50 [14] was > 59.6 µM (not active).

For Cc1cc(C)n2nc(C(=O)OC(C)C(=O)c3cc(C)c(C)cc3C)nc2n1 (stereo not given), the AC50 [15] was > 350 µM (inactive).

With Oc1ccccc1/C=N/c1ccccc1-c1nc2ccccc2[nH]1 the AC50 [15] was 241 µM (active).

For CC[C@]1(O)CC2CN(CCc3c([nH]c4ccccc34)[C@@](C(=O)OC)(c3cc4c(cc3OC)N(C=O)[C@H]3[C@@](O)(C(=O)OC)[C@H](OC(C)=O)[C@]5(CC)C=CCN6CC[C@]43[C@@H]65)C2)C1 (stereo not given in full) [VINCRISTINE SULFATE], the EC50 [16] was < 0.1 µM (active), the EC50 [17] was 0.047 µM (active) and the EC50 [18] was 0.063 µM (active). The EC50 [19] was < 0.1 µM (active), the EC50 [20] was < 0.1 µM (active) and the EC50 [21] was 0.055 µM (active). For the same compound, the IC50 [22] was > 80 µM (inactive), the IC50 [23] was > 67.5 µM (inactive) and the IC50 [24] was > 0.278 µM (active).

— ChEMBL document CHEMBL1201862, “PubChem BioAssay data set” (2004)
